Measured values: US6958156B2, “Isoflavone derivatives” (Vyrex Corporation, priority 2000, dated 2005)

Assays:
[1] = Non-enzymatic hydrolysis of genistein esters in aqueous buffer (HPLC); assay type: physicochemical; settings: phosphate-buffered saline (0.1 M), pH 7.4, 37°, 10 days
From the text: By way of example, and not of limitation, several embodiments of the inventive subject matter have been prepared and characterized. These examples all fall within the group of pro-compounds where at least one of R7, R6, R5 and R4′ is H2PO4—, and HOOC—(CH2)x-COO— where x=2, 3, or 4. These new phosphate esters and hemiesters are all water soluble and readily hydrolyzed. They are also stable. In aqueous solutions of the exemplified compounds, for example, hydrolysis occurs to the extent of less than 1% per day, when stored at pH 7.4 and 37° C. Dry formulations of the same compounds appear to be indefinitely stable.
HPLC analysis was conducted using a Partisil ODS-3 column (9.5×250 mm), with methanol as the mobile phase, and UV detection at 260 nm.
A solution of genistein-7-phosphate (2.5 mg) in 5 ml of phosphate-buffered saline (0.1 M) at pH 7.4 was incubated at 37° for 10 days.
A solution of genistein-7-hemisuccinate (2.5 mg) in 5 ml of phosphate-buffered saline (0.1 M) at pH 7.4 was incubated at 37° for 10 days.

[2] = test system: alkaline phosphatase type VII-S; experiment: Hydrolysis by alkaline phosphatase type VII-S; assay type: biochemical, bovine; settings: 37° C., 0.5 DEA units in 1.0 ml 0.1M glycine buffer pH 10.4, initial substrate 1.07 mM
Experimental: (§1) In each of these experiments, free genistein was extracted with a 1:1 mixture of ethyl acetate and hexane, then analyzed by HPLC under the conditions described in example 5.
d) In alkaline phosphatase type VII-S at 37° C., the initial rate of hydrolysis to free genistein was 0.08% per minute.
This enzyme from bovine intestinal mucosa (Sigma cat no. P5521). 0.5 DEA units were dissolved in 1.0 ml of 0.1M glycine buffer pH 10.4, and the initial substrate concentration was 1.07 mM.

[3] = target: alkaline phosphatase type XXIV (Homo sapiens, UniProt P05187); experiment: Hydrolysis by alkaline phosphatase type XXIV; assay type: biochemical; settings: 37° C.
Experimental: as §1
e) In alkaline phosphatase type XXIV at 37° C., the initial rate of hydrolysis to free genistein was 0.05% per minute.

[4] = Hydrolysis of genistein-7-phosphate to free genistein in human serum; assay type: in vitro ADME; settings: 37° C.
Experimental: as §1
a) In human serum (Sierra Biologicals) at 37° C., the half-life for hydrolysis to free genistein was about 5 hours.

[5] = Hydrolysis of genistein-7-phosphate to free genistein in rat blood; assay type: in vitro ADME; settings: 37° C.
Experimental: as §1
c) In rat blood (Sierra Biologicals) at 37° C., the half-life for hydrolysis to free genistein was about 30 minutes.

[6] = Hydrolysis of genistein-7-phosphate to free genistein in human blood; assay type: in vitro ADME; settings: 37° C.
Experimental: as §1
b) In human blood (Sierra Biologicals) at 37° C., the half-life for hydrolysis to free genistein was about 6 hours.

[7] = Merck Index descriptions; cited from earlier work

Chain of alkaline phosphatase type XXIV (P05187 23-506): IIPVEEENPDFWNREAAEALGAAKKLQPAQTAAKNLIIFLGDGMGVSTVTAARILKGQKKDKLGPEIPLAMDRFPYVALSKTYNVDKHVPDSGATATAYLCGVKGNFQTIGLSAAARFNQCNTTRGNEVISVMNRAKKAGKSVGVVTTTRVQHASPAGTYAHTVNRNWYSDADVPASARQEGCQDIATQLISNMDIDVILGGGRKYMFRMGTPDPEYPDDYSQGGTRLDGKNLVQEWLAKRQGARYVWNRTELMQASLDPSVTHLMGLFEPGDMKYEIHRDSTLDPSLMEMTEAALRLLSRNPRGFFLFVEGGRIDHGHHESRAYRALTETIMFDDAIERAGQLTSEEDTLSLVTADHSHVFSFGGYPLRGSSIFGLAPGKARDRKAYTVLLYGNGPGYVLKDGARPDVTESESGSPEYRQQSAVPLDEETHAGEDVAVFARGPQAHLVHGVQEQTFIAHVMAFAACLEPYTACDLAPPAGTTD

Question: Which “conversion of the ester to free genistein” value [1] does the source give for `O=C(O)CCC(=O)Oc1cc(O)c2c(=O)c(-c3ccc(O)cc3)coc2c1` [genistein-7-hemisuccinate, Genistein-7-Hemisuccinate] here?
Answer: The value was “about 4%”.

Question: Which results are given for `O=c1c(-c2ccc(O)cc2)coc2cc(OP(=O)(O)O)cc(O)c12` [genistein-7-phosphate, Genistein-7-Phosphate]?
Answer: initial rate of hydrolysis to free genistein [2]: 0.08 % per minute; initial rate of hydrolysis to free genistein [3]: 0.05 % per minute; free genistein found by HPLC after incubation [1]: absence of free genistein; half-life [4]: ~5 h; half-life [5]: ~0.5 h; half-life [6]: ~6 h

Question: Which solubility in water [7] does the source give for `O=c1c(-c2ccc(O)cc2)coc2cc(O)cc(O)c12` [genistein] here?
Answer: Its solubility in water is “very insoluble”.
